For one test, the target named is T1, IDH2 R140Q (Homo sapiens, UniProt P48735, R140Q).
T1 sequence (P48735 40-452 R140Q): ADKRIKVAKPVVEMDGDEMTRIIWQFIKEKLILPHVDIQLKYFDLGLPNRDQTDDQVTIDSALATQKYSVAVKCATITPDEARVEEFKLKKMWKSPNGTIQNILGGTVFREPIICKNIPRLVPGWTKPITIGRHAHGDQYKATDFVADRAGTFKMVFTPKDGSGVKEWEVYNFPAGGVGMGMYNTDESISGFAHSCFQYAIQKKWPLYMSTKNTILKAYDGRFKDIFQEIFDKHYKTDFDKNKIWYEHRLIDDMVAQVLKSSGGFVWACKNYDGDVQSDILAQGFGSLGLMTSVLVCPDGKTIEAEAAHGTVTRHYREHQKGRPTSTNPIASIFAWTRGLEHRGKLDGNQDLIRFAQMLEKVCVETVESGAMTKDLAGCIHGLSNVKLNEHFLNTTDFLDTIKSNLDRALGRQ
The test is described as follows: IDH2 R140Q enzymatic assay (cofactor depletion, similar format). Particulars: read-out: Enz R140Q. It counts as biochemical. The procedure:
[The source words this procedure for another variant and says it was used here with some conditions changed.] Compounds are assayed for IDH2 R172K inhibitory activity through a cofactor depletion assay. […] The reaction is terminated by the addition of a second enzyme, diaphorase, and a corresponding substrate, resazurin. Diaphorase reduces resazurin to the highly fluorescent resorufin with the concomitant oxidation of NADPH to NADP, both halting the IDH2 reaction by depleting the available cofactor pool and facilitating quantitation of the amount of cofactor remaining after a specific time period through quantitative production of an easily detected fluorophore.
The test compound is then incubated for one hour at room temperature with the enzyme; before starting the IDH2 reaction with the addition of 10 μl of substrate mix containing 50 μM NADPH and 6.3 mM α-KG in the buffer described above. After a further one hour of incubation at room temperature, the reaction is halted and the remaining NADPH measured through conversion of resazurin to resorufin by the addition of 25 μl Stop Mix (36 μg/ml diaphorase enzyme and 60 μM resazurin; in buffer).

In test [1] the test system is U87MG pLVX-IDH2 R140Q-neo cells. The test is described as follows: U87MG pLVX-IDH2 R140Q-neo cell based assay, 2-HG in media by LC-MS at 48 hours. Conditions: for IC50: Homo sapiens, U-87 MG. The protocol:
U87MG pLVX-IDH2 R140Q-neo cells are grown in T125 flasks in DMEM containing 10% FBS, 1× penicillin/streptomycin and 500 μg/mL G418. They are harvested by trypsin and seeded into 96 well white bottom plates at a density of 5000 cell/well in 100 μl/well in DMEM with 10% FBS. No cells are plated in columns 1 and 12. Cells are incubated overnight at 37° C. in 5% CO2. The next day compounds are made up at 2× concentration and 100 ul are added to each cell well. The final concentration of DMSO is 0.2% and the DMSO control wells are plated in row G. The plates are then placed in the incubator for 48 hours. At 48 hours, 100 ul of media is removed from each well and analyzed by LC-MS for 2-HG concentrations. The cell plate is placed back in the incubator for another 24 hours. At 72 hours post compound addition, 10 mL/plate of Promega Cell Titer Glo reagent is thawed and mixed. The cell plate is removed from the incubator and allowed to equilibrate to room temperature. Then 100 ul of reagent is added to each well of media. The cell plate is then placed on an orbital shaker for 10 minutes and then allowed to sit at room temperature for 20 minutes. The plate is then read for luminescence with an integration time of 500 ms to determine compound effects on growth inhibition.

We go through 27 compounds from patent US9512107B2, “Therapeutically active compositions and their methods of use” (Agios Pharmaceuticals, Inc., priority 2012, dated 2016).

As to `CC(C)Nc1nc(Nc2ccc(C3CC3)nc2)nc(-c2ccccc2)n1` [Compound 316, N^2-(6-cyclopropylpyridin-3-yl)-N^4-isopropyl-6-phenyl-1,3,5-triazine-2,4-diamine], the IC50 (on IDH2 R140Q; in test [1]) was 100 to 1000 nM throughout.

With `CS(=O)(=O)c1cccc(Nc2nc(NC3CCC3)nc(-c3ccccc3F)n2)c1` [Compound 317, N^2-cyclobutyl-6-(2-fluorophenyl)-N^4-(3-(methylsulfonyl)phenyl)-1,3,5-triazine-2,4-diamine], the IC50 (on IDH2 R140Q; in test [1]) was less than 100 nM in each case.

As to `Fc1cncc(Nc2nc(NC3CCC3)nc(-c3ccccc3F)n2)c1` [Compound 318, N-Cyclobutyl-6-(2-fluoro-phenyl)-N′-(5-fluoro-pyridin-3-yl)-[1,3,5]triazine-2,4-diamine], the IC50 (on IDH2 R140Q; in test [1]) was less than 100 nM throughout.

For `CC(C)(O)CNc1nc(Nc2ccnc(C(F)(F)F)c2)nc(-c2ccccc2F)n1` [Compound 319, 1-(4-(2-fluorophenyl)-6-(2-(trifluoromethyl)pyridin-4-ylamino)-1,3,5-triazin-2-ylamino)-2-methylpropan-2-ol], the IC50 is 100 to 1000 nM at IDH2 R140Q and less than 100 nM in test [1].

`CC(C)CNc1nc(Nc2cncc(F)c2)nc(-c2ccccc2F)n1` [Compound 320, 6-(2-fluorophenyl)-N^2-(5-fluoropyridin-3-yl)-N^4-isobutyl-1,3,5-triazine-2,4-diamine]: the IC50 (at IDH2 R140Q; in test [1]) was less than 100 nM throughout.

As for `CC(C)Nc1nc(Nc2cncc(C#N)c2)nc(-c2ccccc2F)n1` [Compound 321, 5-(4-(2-fluorophenyl)-6-(isopropylamino)-1,3,5-triazin-2-ylamino)nicotinonitrile], the IC50 (on IDH2 R140Q; in test [1]) was less than 100 nM throughout.

In the case of `Fc1cncc(Nc2nc(NC3CCC3)nc(-c3ccccn3)n2)c1` [Compound 322, N^2-cyclobutyl-N^4-(5-fluoropyridin-3-yl)-6-(pyridin-2-yl)-1,3,5-triazine-2,4-diamine], the results for the IC50 (on IDH2 R140Q; in test [1]) were 100 to 1000 nM and less than 100 nM, respectively.

As to `Fc1cncc(Nc2nc(NC3CCC3)nc(-c3cccc(Cl)n3)n2)c1` [Compound 323, 6-(6-chloropyridin-2-yl)-N^2-cyclobutyl-N^4-(5-fluoropyridin-3-yl)-1,3,5-triazine-2,4-diamine], the IC50 was 100 to 1000 nM at IDH2 R140Q and less than 100 nM in test [1].

Turning to `CC(O)C(=O)Nc1nc(Nc2ccccc2)nc(-c2ccccc2)n1` (stereo not drawn) [Compound 324, 2-hydroxy-N-(4-phenyl-6-(phenylamino)-1,3,5-triazin-2-yl)propanamide], the IC50 at IDH2 R140Q fell in the range of 100 to 1000 nM; in test [1], 1000 to 10000 nM.

`Fc1ccc(Nc2nc(NC3CCC3)nc(-c3cccc(Cl)n3)n2)cn1` [Compound 325, 6-(6-chloropyridin-2-yl)-N^2-cyclobutyl-N^4-(6-fluoropyridin-3-yl)-1,3,5-triazine-2,4-diamine]: the IC50 (at IDH2 R140Q; in test [1]) was less than 100 nM in each case.

Consider `CC(C)Nc1nc(Nc2cccc(S(C)(=O)=O)c2)nc(-c2cccc(Cl)n2)n1` [Compound 326, 6-(6-chloropyridin-2-yl)-N^2-isopropyl-N^4-(3-(methylsulfonyl)phenyl)-1,3,5-triazine-2,4-diamine], for which the IC50 on IDH2 R140Q is 100 to 1000 nM; in test [1], less than 100 nM.

Take `CC(C)Nc1nc(Nc2ccncc2)nc(-c2cccc(N)c2)n1` [Compound 327]: the IC50 (at IDH2 R140Q; in test [1]) was 100 to 1000 nM throughout.

On to `CC(C)Nc1nc(Nc2ccncc2)nc(-c2cccc(O)c2)n1` [Compound 328, 3-[4-Isopropylamino-6-(pyridin-4-ylamino)-[1,3,5]triazin-2-yl]-phenol], for which the IC50 (at IDH2 R140Q; in test [1]) was less than 100 nM each time.

As to `CC(C)Nc1nc(Nc2cncc(C(F)(F)F)c2)nc(-c2ccccc2)n1` [Compound 329, N^2-isopropyl-6-phenyl-N^4-(5-(trifluoromethyl)pyridin-3-yl)-1,3,5-triazine-2,4-diamine], the IC50 (at IDH2 R140Q; in test [1]) was less than 100 nM each time.

For the compound `Clc1cncc(Nc2nc(NC3CCC3)nc(-c3ccccn3)n2)c1` [Compound 330, N^2-(5-chloropyridin-3-yl)-N^4-cyclobutyl-6-(pyridin-2-yl)-1,3,5-triazine-2,4-diamine], the IC50 on IDH2 R140Q is 100 to 1000 nM; in test [1], less than 100 nM.

Turning to `CNc1cccc(-c2nc(Nc3ccccc3)nc(NC(C)C)n2)n1` [Compound 331, N^2-isopropyl-6-(6-(methylamino)pyridin-2-yl)-N^4-phenyl-1,3,5-triazine-2,4-diamine], the IC50 at IDH2 R140Q was 100 to 1000 nM; in test [1], less than 100 nM.

`CC(C)Nc1nc(Nc2cn(C)cn2)nc(-c2ccccc2)n1` [Compound 332, N^2-isopropyl-N^4-(1-methyl-1H-imidazol-4-yl)-6-phenyl-1,3,5-triazine-2,4-diamine]: the IC50 on IDH2 R140Q is more than 10000 nM. Moreover, the “Cell R140Q” value in test [1] is “No Fit”.

As for `Cc1ncc(Nc2nc(NC(C)C)nc(-c3ccccc3)n2)cn1` [Compound 343, N^2-isopropyl-N^4-(2-methylpyrimidin-5-yl)-6-phenyl-1,3,5-triazine-2,4-diamine], the IC50 (on IDH2 R140Q; in test [1]) was 100 to 1000 nM throughout.

With `COC(=O)c1cc(Nc2nc(NC(C)C)nc(-c3ccccc3)n2)ccn1` [Compound 346], the values for the IC50 (at IDH2 R140Q; in test [1]) were less than 100 nM and 100 to 1000 nM, respectively.

As to `O[C@H]1CCC[C@H]1Nc1nc(Nc2ccccc2)nc(-c2ccccc2)n1` [Compound 352, (1S,2R)-2-(4-phenyl-6-(phenylamino)-1,3,5-triazin-2-ylamino)cyclopentanol], the IC50 (at IDH2 R140Q; in test [1]) was less than 100 nM each time.

Consider `CC(C)Nc1nc(Nc2cncnc2)nc(-c2cccc(Cl)n2)n1` [Compound 353, 6-(6-chloropyridin-2-yl)-N^2-isopropyl-N^4-(pyrimidin-5-yl)-1,3,5-triazine-2,4-diamine], for which the IC50 is 100 to 1000 nM on IDH2 R140Q and less than 100 nM in test [1].

As for `CC(C)Nc1nc(Nc2ccnc(Cl)c2)nc(-c2cccc(Cl)n2)n1` [Compound 354, 6-(6-chloropyridin-2-yl)-N^2-(2-chloropyridin-4-yl)-N^4-isopropyl-1,3,5-triazine-2,4-diamine], the IC50 on IDH2 R140Q is 100 to 1000 nM; in test [1], less than 100 nM.

As to `CC(C)Nc1nc(Nc2ccnc(C#N)c2)nc(-c2cccc(Cl)n2)n1` [Compound 355, 4-(4-(6-chloropyridin-2-yl)-6-(isopropylamino)-1,3,5-triazin-2-ylamino)picolinonitrile], the figures for the IC50 (on IDH2 R140Q; in test [1]) were 100 to 1000 nM and less than 100 nM, respectively.

With `FC(F)(F)c1cc(Nc2nc(NC3COC3)nc(-c3cccc(Cl)n3)n2)ccn1` [Compound 356, 6-(6-Chloro-pyridin-2-yl)-N-oxetan-3-yl-N′-(2-trifluoromethyl-pyridin-4-yl)-[1,3,5]triazine-2,4-diamine], the IC50 on IDH2 R140Q was 100 to 1000 nM; in test [1], less than 100 nM.

Turning to `Cc1cccc(-c2nc(Nc3cccc(S(C)(=O)=O)c3)nc(NC(C)C)n2)n1` [Compound 359, N^2-isopropyl-6-(6-methylpyridin-2-yl)-N^4-(3-(methylsulfonyl)phenyl)-1,3,5-triazine-2,4-diamine], the IC50 (on IDH2 R140Q; in test [1]) was 100 to 1000 nM throughout.

`C#Cc1cccc(-c2nc(Nc3cccc(S(C)(=O)=O)c3)nc(NC(C)C)n2)n1` [Compound 360, 6-(6-ethynylpyridine-2-yl)-N^2-isopropyl-N^4-(3-(methylsulfonyl)phenyl)-1,3,5-triazine-2,4-diamine]: the IC50 (on IDH2 R140Q; in test [1]) was 100 to 1000 nM each time.

As to `COc1cccc(-c2nc(Nc3cccc(S(C)(=O)=O)c3)nc(NC(C)C)n2)n1` [Compound 361, N^2-isopropyl-6-(6-methoxypyridin-2-yl)-N^4-(3-(methylsulfonyl)phenyl)-1,3,5-triazine-2,4-diamine], the IC50 (at IDH2 R140Q; in test [1]) was 100 to 1000 nM throughout.
